Calls of active or inactive are those of the source. The rule behind the calls is not given here.
What was measured:
[1] = Antioxidant activity assessed as trolox equivalent of Cu2+ reducing activity incubated for 30 mins by CUPRAC assay relative to trolox; format: functional
[2] = test system: HaCaT; assay: Anti-ferroptotic activity against erastin-induced ferroptosis in human HaCaT cells assessed as cell viability at 5 uM pretreated with compound for 4 hrs followed by erastin challenge for 24 hrs by MTT assay (reference value: 45%); format: functional; conditions: time 28 hrs, read-out: Activity
[3] = test system: DNA; assay: Induction of copper-mediated Escherichia coli supercoiled pBR322 DNA cleavage assessed as increase in open circular form of DNA with small amount of linear form at 1 mM incubated for 24 hrs in presence of Cu2+ ion by agarose gel electrophoresis analysis; format: nucleic-acid assay
[4] = Antioxidant activity assessed as DPPH radical scavenging activity incubated for 30 mins under dark condition by microplate reader based assay; format: functional
[5] = test system: DNA; assay: Induction of copper-mediated Escherichia coli supercoiled pBR322 DNA cleavage at 100 uM incubated for 24 hrs in presence of Cu2+ ion by agarose gel electrophoresis analysis; format: nucleic-acid assay
[6] = test system: DNA; assay: Induction of copper-mediated Escherichia coli supercoiled pBR322 DNA cleavage assessed as increase in cleaved DNA with significant amount of supercoiled form at 1 mM incubated for 24 hrs in presence of Cu2+ ion by agarose gel electrophoresis analysis; format: nucleic-acid assay
[7] = test system: DNA; assay: Induction of copper-mediated Escherichia coli supercoiled pBR322 DNA cleavage assessed as increase in open circular form of DNA at 1 mM incubated for 24 hrs in presence of Cu2+ ion by agarose gel electrophoresis analysis; format: nucleic-acid assay
[8] = test system: DNA; assay: Induction of copper-mediated Escherichia coli supercoiled pBR322 DNA cleavage assessed as increase in open circular form and linear form of DNA at 100 uM incubated for 24 hrs in presence of Cu2+ ion by agarose gel electrophoresis analysis; format: nucleic-acid assay
[9] = test system: DNA; assay: Induction of copper-mediated Escherichia coli supercoiled pBR322 DNA cleavage assessed as cleavage of DNA into smaller fragments at 1 mM incubated for 24 hrs in presence of Cu2+ ion by agarose gel electrophoresis analysis; format: nucleic-acid assay
[10] = test system: DNA; assay: Induction of Escherichia coli supercoiled pBR322 DNA cleavage incubated for 90 mins in presence of Cu2+ ion by agarose gel electrophoresis analysis; format: nucleic-acid assay; conditions: dose 3.9-500 µM, DDE = dose-dependent effect

| Activity [3] | IC50 [4] | Activity [5] | Activity [6] | IC50 ([4]; read-out: IC50) [µM] | Activity [7] | Activity [8] | Activity [9] | Activity [10] | Structure (SMILES) | Ratio [1] | viability at 5 µM [2] [%] |
| --- | --- | --- | --- | --- | --- | --- | --- | --- | --- | --- | --- |
| – | – | – | Active | 27.9 | – | – | – | – | CC1(C)C=Cc2c(ccc3cc(C(=O)N/N=C/c4cc(O)c(O)c(O)c4)oc23)O1 | 2.59 | 56 |
| Active | – | Active | – | 61.2 | – | – | – | – | Cc1cc(/C=N/NC(=O)c2cc3ccc4c(c3o2)C=CC(C)(C)O4)cc(C)c1O | 1.11 | 50 |
| – | – | – | – | 51.2 | – | – | – | – | O=C1O[C@H]([C@@H](O)CO)C(O)=C1O [ASCORBIC ACID] | 0.72 | – |
| Active | – | – | – | > 100 | – | – | – | – | COc1ccc(O)c(/C=N/NC(=O)c2cc3ccc4c(c3o2)C=CC(C)(C)O4)c1 | 1.22 | 44 |
| Active | – | – | – | > 100 | – | – | – | – | COc1cc(O)c(/C=N/NC(=O)c2cc3ccc4c(c3o2)C=CC(C)(C)O4)c(OC)c1 | 0.97 | 41 |
| – | – | – | Active | 6.04 | – | – | – | – | CC1(C)C=Cc2c(ccc3cc(C(=O)N/N=C/c4cccc(O)c4O)oc23)O1 | 1.75 | – |
| – | – | – | – | 10.1 | Active | Active | – | – | CC1(C)C=Cc2c(ccc3cc(C(=O)N/N=C/c4ccc(O)c(O)c4O)oc23)O1 | 2.89 | 70 |
| Active | – | Active | – | > 100 | – | – | – | – | COc1cc(/C=N/NC(=O)c2cc3ccc4c(c3o2)C=CC(C)(C)O4)cc(Br)c1O | 1.09 | 59 |
| – | – | – | – | 24.3 | – | – | Active | – | CC1(C)C=Cc2c(ccc3cc(C(=O)N/N=C/c4cc(O)c(O)cc4O)oc23)O1 | 2.43 | 56 |
| Active | – | – | – | > 100 | – | – | – | – | Cc1ccc(O)c(/C=N/NC(=O)c2cc3ccc4c(c3o2)C=CC(C)(C)O4)c1 | 0.95 | 62 |
| – | – | – | – | 5.92 | – | Active | Active | Dde | CC1(C)C=Cc2c(ccc3cc(C(=O)N/N=C/c4ccc(O)c(O)c4)oc23)O1 | 3.97 | 60 |
| Active | – | Active | – | 87.8 | – | – | – | – | COc1cc(/C=N/NC(=O)c2cc3ccc4c(c3o2)C=CC(C)(C)O4)ccc1O | 1.75 | 44 |
| – | – | Active | – | – | Active | – | – | – | CC1(C)C=Cc2c(ccc3cc(C(=O)N/N=C/c4cccc(O)c4)oc23)O1 | – | – |

Further lines, the molecule ahead of its results:

| Structure (SMILES) | Activity [3] | IC50 [4] | Activity [5] | Activity [6] | IC50 ([4]; read-out: IC50) [µM] | Activity [7] | Activity [8] | Activity [9] | Activity [10] | Ratio [1] | viability at 5 µM [2] [%] |
| --- | --- | --- | --- | --- | --- | --- | --- | --- | --- | --- | --- |
| COc1cc(/C=N/NC(=O)c2cc3ccc4c(c3o2)C=CC(C)(C)O4)cc(OC)c1O | Active | Nd(Insoluble) | Active | – | – | – | – | – | – | 2.22 | 57 |
| COc1cccc(/C=N/NC(=O)c2cc3ccc4c(c3o2)C=CC(C)(C)O4)c1O | Active | – | – | – | > 100 | – | – | – | – | 0.85 | 44 |
| COc1cc(/C=N/NC(=O)c2cc3ccc4c(c3o2)C=CC(C)(C)O4)cc([N+](=O)[O-])c1O | Active | – | Active | – | > 100 | – | – | – | – | 1.52 | 59 |
| CC1(C)C=Cc2c(ccc3cc(C(=O)N/N=C/c4ccc(O)cc4)oc23)O1 | – | – | Active | – | > 100 | Active | – | – | – | 0.79 | – |
| CC1(C)C=Cc2c(ccc3cc(C(=O)N/N=C/c4cc(O)cc(O)c4)oc23)O1 | – | – | Active | – | > 100 | Active | – | – | – | 1.27 | – |
| COc1ccc(/C=N/NC(=O)c2cc3ccc4c(c3o2)C=CC(C)(C)O4)c(O)c1 | Active | – | – | – | 67.4 | – | – | – | – | 1.01 | > 50 |
| CC1(C)C=Cc2c(ccc3cc(C(=O)N/N=C/c4ccc(O)cc4O)oc23)O1 | – | – | – | – | 70.1 | – | – | – | – | 1.42 | – |
| CC1(C)C=Cc2c(ccc3cc(C(=O)N/N=C/c4ccccc4O)oc23)O1 | – | – | – | – | – | Active | – | – | – | 0.48 | 62 |
| COc1cc(/C=N/NC(=O)c2cc3ccc4c(c3o2)C=CC(C)(C)O4)cc(I)c1O | Active | – | Active | – | > 100 | – | – | – | – | 0.99 | 59 |
| O=c1c(O)c(-c2ccc(O)c(O)c2)oc2cc(O)ccc12 [FISETIN] | – | – | – | – | – | – | – | – | – | – | 70 |
| CC1(C)C=Cc2c(ccc3cc(C(=O)N/N=C/c4cc(O)ccc4O)oc23)O1 | – | – | – | – | 9.1 | Active | – | – | – | 1.8 | 69 |
| COc1ccc(/C=N/NC(=O)c2cc3ccc4c(c3o2)C=CC(C)(C)O4)cc1O | Active | – | Active | – | > 100 | – | – | – | – | 1.36 | 44 |
| CC1(C)C=Cc2c(ccc3cc(C(=O)N/N=C/c4c(O)cc(O)cc4O)oc23)O1 | – | – | – | Active | 81 | – | – | – | – | 1.36 | 56 |

From ChEMBL document CHEMBL5150042, “Phenolic furanochromene hydrazone derivatives: Synthesis, antioxidant activity, ferroptosis inhibition, DNA cleavage and DNA molecular docking studies” (Bioorg Med Chem, 2022)
